# Measurements reported in patent publication US20210290721A1, “ORAL FORMULATIONS FOR PROMOTING CELLULAR PURIFICATION” (NSE Products, Inc., priority 2011, published 2021).
# Key:
# [1] = test system: iNOS/Nos2; test: RT-qPCR expression of iNOS/Nos2 in lung of young mice; format: in vivo, C57BL/6J mice; details: diet supplemented from 8 to 22 weeks of age, treated vs YC
# Text: C57BL/6J mice were obtained at 6 weeks of age and individually housed in shoebox cages and provided with 24 grams (˜84 kcal) of AIN-93^M diet per week (7 grams on Monday and Wednesday and 10 grams on Friday). Starting at 8 weeks of age and continuing until 22 weeks of age, mice were either 1) maintained on the AIN93^M diet (Young Controls, YC); 2) fed a Calorie Restricted (CR) diet providing 63 kcal/week of a modified AIN93^M formulation; or 3) were assigned to an AIN93^M diet supplemented with one of several plant extracts, vitamins or phytochemicals; the amount of each ingredient per kilogram diet varied depending on the experimental ingredient studied. At 22 weeks of age, tissues were collected from mice, flash-frozen in liquid nitrogen and stored at −80° C. for later analysis.
# To determine if CR or an ingredient positively influenced the Nrf2 pathway to regulate expression of xenobiotic metabolism genes and oxidative stress genes and/or positively influenced genes responsible for regulation of inflammation, we performed quantitative real-time PCR (RT-qPCR) analysis on RNA isolated from entire livers and lungs from all groups of mice. Briefly, the magnitude of change was determined for each gene, comparing the young control (YC) group vs. the caloric or energy restriction (CR) group and YC vs. Treated mice. […]
# [2] = test system: GCLC; test: RT-qPCR expression of GCLC in gastrocnemius muscle of old mice; format: in vivo, B6C3F1 mice; details: for effect on age-related decreases in the expression of GCLC: YC vs OC and OC vs old treated mice; for GCLC expression: diet supplemented from 14 to 30 months of age, old treated vs old controls (OC)
# Text: (§1) B6C3F1 mice were obtained and housed as in Example 1. For the young control (YC) group, starting at 8 weeks of age and continuing until 22 weeks of age, mice were maintained on the AIN93^M diet; For the old animal groups, starting at 14 months of age and continuing until 30 months of age, mice were either 1) maintained on the AIN93^M diet (old controls, OC); 2) fed a calorie or energy restricted (CR) diet providing 63 kcal/week of a modified AIN93^M formulation; or 3) were assigned to an AIN93^M diet supplemented with one of several plant extracts, vitamins or phytochemicals; the amount of each ingredient per kilogram diet varied depending on the experimental ingredient studied. At the end of the feeding period, tissues were collected from the gastrocnemius muscles of the mice, flash-frozen in liquid nitrogen and stored at −80° C. for later analysis.
# To determine if CR or an ingredient opposed age-related declines in the Nrf2 pathway to regulate expression of xenobiotic metabolism genes and oxidative stress genes, we performed quantitative real-time PCR (RT-qPCR) analysis on RNA isolated from gastrocnemius muscle from all groups of mice. The magnitude of change was determined for each gene (YC vs. OC and OC vs Old treated mice). Two-tailed t-tests (assuming equal variance) were used to determine if the change in expression for individual genes was statistically significant. The magnitude of the change in expression is reported as “fold change” values which are log 2-adjusted to fit normality assumptions for statistical analyses.
# A panel of 5 genes representative of the Nrf2 pathway was selected for screening the ingredients: GCLM, GCLC, GSR, GSTA1, and NQO1. Ingredients screened in the muscle included: alpha lipoic acid, CoQ10, Pomegranate, Resveratrol and others.
# [3] = test system: Nrf2/ARE/detoxification related genes; test: RT-qPCR gene expression screening in liver of young mice fed ingredient-supplemented diet; format: in vivo, C57BL/6J mice; details: diet supplemented from 8 to 22 weeks of age, treated vs young control (YC)
# [4] = test system: GSR; test: RT-qPCR expression of GSR in gastrocnemius muscle of old mice; format: in vivo, B6C3F1 mice
# Text: as §1, with “analysis. To determine if CR or an ingredient opposed age-related declines in the Nrf2 pathway to regulate expression of xenobiotic metabolism genes and oxidative stress genes, we performed quantitative real-time PCR (RT-qPCR) analysis on RNA isolated from gastrocnemius muscle from all groups of mice. The magnitude of change was determined for each gene (YC vs. OC and OC vs Old treated mice). Two-tailed t-tests (assuming equal variance) were used to determine if the change in expression for individual genes was statistically significant. […]” for “analysis.”
compound,measurement,setting,value
"COC1=C(OC)C(=O)C(C/C=C(\C)CC/C=C(\C)CC/C=C(\C)CC/C=C(\C)CC/C=C(\C)CC/C=C(\C)CC/C=C(\C)CC/C=C(\C)CC/C=C(\C)CCC=C(C)C)=C(C)C1=O [CoQ10, coenzyme Q10]",change in iNOS/Nos2 expression in the lung,[1],Modest downregulation
same,effect on age-related decreases in the expression of GCLC,[2],opposed age related decreases
same,GCLC expression,[2],upregulated
O=C(O)CCCCC1CCSS1 (stereo not drawn) [alpha lipoic acid],gene expression changes in the liver (impact of ingredient),[3],greatest positive impact
same,effect on age-related decreases in the expression of GCLC,[2],opposed age-related decreases
same,GCLC expression,[2],upregulated
same,effect on age-related decreases in the expression of GSR,[4]; YC vs OC and OC vs old treated mice,opposed age-related decreases
same,GSR expression,"[4]; diet supplemented from 14 to 30 months of age, old treated vs OC",upregulated
"O=c1c(O)c(-c2ccc(O)c(O)c2)oc2cc(O)cc(O)c12 [quercetin, Quercetin]",change in iNOS/Nos2 expression in the lung,[1],Modest downregulation
